Where “and” joins values, the source holds several entries; their conditions need not be identical. Equal entries are not always repeated. Toxic doses and inconclusive results are not listed.
System: BDF1 mice, L1210 leukemia sc, survival T/C
Experiment: NCI In Vivo Anticancer Drug Screen. Data for tumor model L1210 Leukemia (subcutaneous) in B6D2F1 (BDF1) mice
Conditions: higher = longer survival
Summary of the method: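 Expressed as T/C: measurement in compound-treated, tumor-bearing mice relative to vehicle-treated control mice, based on survival or tumor size.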

[1] = endpoint: median survival time, dose: 65.0 mg/kg/injection, schedule: Q01DX Z (sc), vehicle: saline
[2] = endpoint: median survival time, dose: 108.0 mg/kg/injection, schedule: Q01DX Z (sc), vehicle: saline
[3] = endpoint: median survival time, dose: 180.0 mg/kg/injection, schedule: Q01DX Z (sc), vehicle: saline
[4] = endpoint: median survival time, dose: 300.0 mg/kg/injection, schedule: Q01DX Z (sc), vehicle: saline
[5] = endpoint: median survival time, dose: 180.0 mg/kg/injection, schedule: Q01DX Z (sc), vehicle: methylcellulose (MC)

For `Nc1nc2c(c(=O)[nH]1)N=C(CNc1ccc(C(=O)NC(CCC(=O)O)C(=O)O)cc1)CN2` (stereo not given), which T/C (endpoint: mean survival time, dose: 1.0 mg/kg/injection, schedule: Q01DX009 (ip), vehicle: sodium bicarbonate) is on record?
Its T/C is 95 % of control.

And the T/C (endpoint: mean survival time, dose: 2.0 mg/kg/injection, schedule: Q01DX009 (ip), vehicle: sodium bicarbonate)?
The T/C was 94 % of control.

And the T/C (endpoint: mean survival time, dose: 4.0 mg/kg/injection, schedule: Q01DX009 (ip), vehicle: sodium bicarbonate)?
The T/C was 98 % of control.

What about the T/C (endpoint: mean survival time, dose: 4.0 mg/kg/injection, schedule: Q04DX003 (ip), vehicle: sodium bicarbonate) of the same compound?
Its T/C is 98 % of control.

What about the T/C (endpoint: mean survival time, dose: 8.0 mg/kg/injection, schedule: Q01DX009 (ip), vehicle: sodium bicarbonate) of the same compound?
Its T/C is 94 % of control.

And the T/C (endpoint: mean survival time, dose: 8.0 mg/kg/injection, schedule: Q04DX003 (ip), vehicle: sodium bicarbonate)?
The T/C was 100 % of control.

What about the T/C (endpoint: mean survival time, dose: 16.0 mg/kg/injection, schedule: Q01DX009 (ip), vehicle: sodium bicarbonate) of the same compound?
The T/C was 102 % of control.

What about the T/C (endpoint: mean survival time, dose: 16.0 mg/kg/injection, schedule: Q04DX003 (ip), vehicle: sodium bicarbonate) of the same compound?
The T/C was 96 % of control.

And the T/C (endpoint: mean survival time, dose: 32.0 mg/kg/injection, schedule: Q04DX003 (ip), vehicle: sodium bicarbonate)?
Its T/C is 98 % of control.

What about the T/C (endpoint: mean survival time, dose: 64.0 mg/kg/injection, schedule: Q04DX003 (ip), vehicle: sodium bicarbonate) of the same compound?
Its T/C is 96 % of control.

`O=C(Nc1ccc(C2=NCCN2)cc1)c1ccc(C(=O)Nc2ccc(C3=NCCN3)cc2)cc1` was tested. Which T/C (endpoint: median survival time, dose: 3.0 mg/kg/injection, schedule: Q01DX Z (sc), vehicle: saline) did it give?
The T/C was 100 % of control.

And the T/C (endpoint: median survival time, dose: 5.0 mg/kg/injection, schedule: Q01DX Z (sc), vehicle: saline)?
The T/C was 100 % of control and 104 % of control.

What about the T/C (endpoint: median survival time, dose: 8.4 mg/kg/injection, schedule: Q01DX Z (sc), vehicle: saline) of the same compound?
Its T/C is 109 % of control.

What about the T/C (endpoint: median survival time, dose: 14.0 mg/kg/injection, schedule: Q01DX Z (sc), vehicle: saline) of the same compound?
The T/C was 104 % of control.

And the T/C (endpoint: median survival time, dose: 23.0 mg/kg/injection, schedule: Q01DX Z (ip), vehicle: water)?
Its T/C is 100 % of control.

And the T/C (endpoint: median survival time, dose: 23.0 mg/kg/injection, schedule: Q01DX Z (sc), vehicle: saline)?
The T/C was 104 % of control and 109 % of control.

What about the T/C (endpoint: median survival time, dose: 39.0 mg/kg/injection, schedule: Q01DX Z (ip), vehicle: water) of the same compound?
Its T/C is 100 % of control.

And the T/C (endpoint: median survival time, dose: 39.0 mg/kg/injection, schedule: Q01DX Z (sc), vehicle: saline)?
Its T/C is 100 % of control.

And the T/C (endpoint: median survival time, dose: 39.0 mg/kg/injection, schedule: Q01DX Z (sc), vehicle: water)?
The T/C was 100 % of control.

And the T/C (endpoint: median survival time, dose: 65.0 mg/kg/injection, schedule: Q01DX Z (ip), vehicle: water)?
Its T/C is 110 % of control.

What about the T/C [1] of the same compound?
The T/C was 100 % of control and 104 % of control.

What about the T/C [2] of the same compound?
The T/C was 100 % of control and 104 % of control.

And the T/C (endpoint: median survival time, dose: 180.0 mg/kg/injection, schedule: Q01DX Z (ip), vehicle: water)?
Its T/C is 115 % of control.

And the T/C [3]?
Its T/C is 104 % of control.

What about the T/C (endpoint: median survival time, dose: 200.0 mg/kg/injection, schedule: Q01DX Z (sc), vehicle: water) of the same compound?
Its T/C is 110 % of control and 100 % of control.

What about the T/C (endpoint: median survival time, dose: 300.0 mg/kg/injection, schedule: Q01DX Z (ip), vehicle: water) of the same compound?
Its T/C is 185 % of control.

And the T/C [4]?
Its T/C is 104 % of control.

What about the T/C (endpoint: median survival time, dose: 300.0 mg/kg/injection, schedule: Q01DX Z (sc), vehicle: water) of the same compound?
Its T/C is 100 % of control.

What about the T/C (endpoint: median survival time, dose: 400.0 mg/kg/injection, schedule: Q01DX Z (sc), vehicle: water) of the same compound?
The T/C was 205 % of control and 105 % of control.

What about the T/C (endpoint: median survival time, dose: 800.0 mg/kg/injection, schedule: Q01DX Z (sc), vehicle: water) of the same compound?
The T/C was 170 % of control and 220 % of control.

Which results are given for `Cc1cc2nc3c(=O)[nH]c(=O)nc-3n(CC(O)C(O)C(O)C(O)CO)c2cc1C` (stereo not given)?
T/C [5]: 100 % of control; T/C (endpoint: median survival time, dose: 300.0 mg/kg/injection, schedule: Q01DX Z (sc), vehicle: methylcellulose (MC)): 100 % of control; T/C (endpoint: median survival time, dose: 500.0 mg/kg/injection, schedule: Q01DX Z (sc), vehicle: methylcellulose (MC)): 100 % of control

Which results are given for `CN(Cc1cnc2nc(N)nc(N)c2n1)c1c(Cl)cc(C(=O)NC(CCC(=O)O)C(=O)O)cc1Br` (stereo not given)?
T/C (endpoint: median survival time, dose: 1.8 mg/kg/injection, schedule: Q## X Z (sc), vehicle: other): 266 % of control; T/C (endpoint: median survival time, dose: 3.0 mg/kg/injection, schedule: Q## X Z (sc), vehicle: other): 288 % of control; T/C (endpoint: median survival time, dose: 4.9 mg/kg/injection, schedule: Q01DX Z (ip), vehicle: other): 111 % of control; T/C (endpoint: median survival time, dose: 5.0 mg/kg/injection, schedule: Q01DX Z (sc), vehicle: other): 100 % of control; T/C (endpoint: median survival time, dose: 5.0 mg/kg/injection, schedule: Q## X Z (sc), vehicle: other): 422 % of control; T/C (endpoint: median survival time, dose: 8.3 mg/kg/injection, schedule: Q01DX Z (ip), vehicle: other): 122 % of control; T/C (endpoint: median survival time, dose: 8.4 mg/kg/injection, schedule: Q01DX Z (sc), vehicle: other): 111 % of control; T/C (endpoint: median survival time, dose: 8.4 mg/kg/injection, schedule: Q## X Z (sc), vehicle: other): 100 % of control; T/C (endpoint: median survival time, dose: 14.0 mg/kg/injection, schedule: Q01DX Z (sc), vehicle: other): 244 % of control; T/C (endpoint: median survival time, dose: 14.1 mg/kg/injection, schedule: Q01DX Z (ip), vehicle: other): 122 % of control; T/C (endpoint: median survival time, dose: 23.0 mg/kg/injection, schedule: Q01DX Z (sc), vehicle: other): 283 % of control and 300 % of control; T/C (endpoint: median survival time, dose: 23.4 mg/kg/injection, schedule: Q01DX Z (ip), vehicle: other): 283 % of control; T/C (endpoint: median survival time, dose: 38.9 mg/kg/injection, schedule: Q01DX Z (ip), vehicle: other): 305 % of control; T/C (endpoint: median survival time, dose: 39.0 mg/kg/injection, schedule: Q01DX Z (sc), vehicle: other): 322 % of control and 338 % of control; T/C (endpoint: median survival time, dose: 39.0 mg/kg/injection, schedule: Q## X Z (sc), vehicle: other): 104 % of control; T/C (endpoint: median survival time, dose: 64.8 mg/kg/injection, schedule: Q01DX Z (ip), vehicle: other): 300 % of control; T/C (endpoint: median survival time, dose: 65.0 mg/kg/injection, schedule: Q01DX Z (sc), vehicle: other): 316 % of control and 333 % of control; T/C (endpoint: median survival time, dose: 65.0 mg/kg/injection, schedule: Q## X Z (sc), vehicle: other): 104 % of control; T/C (endpoint: median survival time, dose: 107.0 mg/kg/injection, schedule: Q01DX Z (ip), vehicle: other): 244 % of control; T/C (endpoint: median survival time, dose: 108.0 mg/kg/injection, schedule: Q01DX Z (sc), vehicle: other): 211 % of control and 233 % of control; T/C (endpoint: median survival time, dose: 108.0 mg/kg/injection, schedule: Q## X Z (sc), vehicle: other): 104 % of control; T/C (endpoint: median survival time, dose: 179.0 mg/kg/injection, schedule: Q01DX Z (ip), vehicle: other): 177 % of control; T/C (endpoint: median survival time, dose: 180.0 mg/kg/injection, schedule: Q01DX Z (sc), vehicle: other): 166 % of control; T/C (endpoint: median survival time, dose: 180.0 mg/kg/injection, schedule: Q## X Z (sc), vehicle: other): 109 % of control; T/C (endpoint: median survival time, dose: 300.0 mg/kg/injection, schedule: Q## X Z (sc), vehicle: other): 114 % of control; T/C (endpoint: median survival time, dose: 500.0 mg/kg/injection, schedule: Q## X Z (sc), vehicle: other): 114 % of control

`CCN(CC)CCNc1ccc(C)c2sc3ccccc3c(=O)c12` (tested in a mixture with another compound) was tested. Which T/C (endpoint: median survival time, dose: 39.0 mg/kg/injection, schedule: Q01DX Z (sc), vehicle: methylcellulose (MC)) did it give?
Its T/C is 100 % of control.

And the T/C (endpoint: median survival time, dose: 65.0 mg/kg/injection, schedule: Q01DX Z (sc), vehicle: methylcellulose (MC))?
The T/C was 100 % of control.

What about the T/C (endpoint: median survival time, dose: 108.0 mg/kg/injection, schedule: Q01DX Z (sc), vehicle: methylcellulose (MC)) of the same compound?
The T/C was 100 % of control.

What about the T/C [5] of the same compound?
The T/C was 100 % of control.

And the T/C (endpoint: median survival time, dose: 200.0 mg/kg/injection, schedule: Q01DX Z (sc), vehicle: methylcellulose (MC))?
The T/C was 111 % of control.

`[N-]=[N+]=CC(=O)NCC(=O)NN` was tested. Which T/C [1] did it give?
The T/C was 90 % of control.

What about the T/C [2] of the same compound?
The T/C was 100 % of control.

And the T/C [3]?
Its T/C is 100 % of control.

What about the T/C [4] of the same compound?
The T/C was 100 % of control.

And the T/C (endpoint: median survival time, dose: 500.0 mg/kg/injection, schedule: Q01DX Z (sc), vehicle: saline)?
Its T/C is 100 % of control.

And the T/C (endpoint: median survival time, dose: 833.0 mg/kg/injection, schedule: Q01DX Z (sc), vehicle: saline)?
The T/C was 107 % of control.
